Data set [1] is described as follows: body weight of Z-138 tumour bearing mice. The note with it: any of the treatment groups. Type of data set: in vivo, mouse. An excerpt:
Supplementary Figure S7. […] Z-138 tumour
Treatments were reinstated on day 32 for 2 weeks followed by a one week holiday.

For another data set, the system named is SDMA in Z-138 tumors. Put plainly: SDMA in Z-138 tumour xenograft. Type of data set: in vivo, mouse. The note with it: 7 days. The procedure: Treatment was re-instated on day 32 for 2 weeks followed by a 1 week holiday. […] QD doses evaluated include 0, 50, 100, and 200 mg/kg. […] Sampling 2 hours post last dose. […] SDMA ELISA was performed on homogenized cells and frozen tumour lysates. Fluorescence intensity generated by addition of Luminata Forte (Millipore #WBKUF0500) substrate was measured on a PerkinElmer Envision plate reader.

A short description of the next data set: mouse pharmacokinetics. It is filed as in vivo. To be noted: data not shown.
For data set [2], the system named is SDMA in a panel of breast and lymphoma cell lines. Put plainly: SDMA EC50 in breast and lymphoma cell line panel. Type of data set: cell-based. The note with it: Homo sapiens; all cell lines of the panel; read-out: SDMA EC50 range. The procedure:
SDMA ELISA was performed on homogenized cells and frozen tumour lysates. Fluorescence intensity generated by addition of Luminata Forte (Millipore #WBKUF0500) substrate was measured on a PerkinElmer Envision plate reader.
Cells were seeded in optical bottom cell culture plates and targets were probed with fluorescent secondary antibodies and DAPI stain. Quantification of nuclear SDMA and SMD3 levels was performed with a Molecular Devices […] high-content fluorescence imager and image analysis was performed with ImageExpress software.

For data set [3], the system named is p53 mutant MCL xenograft model, REC-1. Put plainly: REC-1 xenograft efficacy. Type of data set: in vivo, mouse. The note with it: 100 mg/kg BID. An excerpt:
We also observed an increase in the expression of p53 target genes including p21/CDKN1 (Supplementary Figure S7B), confirming induction of p53 activity.

The source of these data is paper PMC6018746, “Activation of the p53-MDM4 regulatory axis defines the anti-tumour response to PRMT5 inhibition through its role in regulating cellular splicing” (Scientific Reports, 2018).

For `CC(=O)N1CCC(Nc2cc(C(=O)NC[C@H](O)CN3CCc4ccccc4C3)ncn2)CC1` [GSK3326595], in data set [1], the body weight result was “No significant body weight losses”. The SDMA % vehicle with SDMA in Z-138 tumors (0.5 mg/kg BID) was found to be 71%; with SDMA in Z-138 tumors (1.4 mg/kg BID), 47%; in the data set on SDMA in Z-138 tumors (4.2 mg/kg BID), 28%; in the data set on SDMA in Z-138 tumors (12.5 mg/kg BID) it was 9%; in the data set on SDMA in Z-138 tumors (25 mg/kg BID), 5%; with SDMA in Z-138 tumors (50 mg/kg BID), 8%. Besides, the SDMA % vehicle is 16% in the data set with SDMA in Z-138 tumors (50 mg/kg QD), 2% in the data set on SDMA in Z-138 tumors (100 mg/kg BID), 12% in the data set with SDMA in Z-138 tumors (100 mg/kg QD) and 9% in the data set on SDMA in Z-138 tumors (200 mg/kg QD). In “mouse pharmacokinetics”, this compound showed an elimination half-life of 1.8 h. Besides, the EC50 in data set [2] lay within 2 to 160 nM. The same compound had a tumour growth inhibition (TGI) in data set [3] of 55%.

As a reminder, the EC50 is the concentration giving half of the maximal effect. Broadly, the TGI is how far tumour growth fell short of that in controls. Read a low TGI as little slowing of growth.
